Where “and” joins values, the source holds several entries; their conditions need not be identical. Equal entries are not always repeated.
What was measured:
BRK = target: T1, BRK (Homo sapiens, UniProt Q13882); test: KINOMEScan; format: binding; details: read-out: Percent Control
T1 construct: purchased Eurofins DiscoverX (KINOMEscan)
Source text: (§1) Percent control was mapped onto the kinome tree using TREEspot.

BLK = target: T2, BLK (Homo sapiens, UniProt P51451); test: KINOMEScan; format: binding; details: read-out: Percent Control
T2 construct: purchased Eurofins DiscoverX (KINOMEscan)
Source text: as §1

[1] = target: T3, ABL1(T315I)-phosphorylated (Homo sapiens, UniProt P00519, T315I); test: KINOMEScan; format: binding; details: read-out: Percent Control
T3 construct: purchased Eurofins DiscoverX
Source text: as §1

[2] = target: T4, ABL1(Q252H)-phosphorylated (Homo sapiens, UniProt P00519, Q252H); test: KINOMEScan; format: binding; details: read-out: Percent Control
T4 construct: purchased Eurofins DiscoverX
Source text: as §1

ERBB2 (HER2) = target: T5, ERBB2 (HER2) (Homo sapiens, UniProt P04626); test: KINOMEScan; format: binding; details: read-out: Percent Control
T5 construct: purchased Eurofins DiscoverX (KINOMEScan service)
Source text: as §1

CYP2D6 = CYP2D6 (Homo sapiens, UniProt P10635); test: CYP450 inhibition in human liver microsomes; format: in vitro ADME; parameters: tissue BD Gentest 452117; host or cells: pooled human liver microsomes, mixed gender
Experimental: The activities tested were CYP1A2-mediated phenacetin O-demethylation, CYP2C19-mediated (S)-mephenyotin 4′-hydroxylation, CYP2C9-mediated diclofenac 4′-hydroxylation, CYP2D6-mediated dextromethorphan O-demethylation, and CYP3A4-mediated midazolam 1′-hydroxylation. […] The reactions were initiated by adding NADPH (1 mM final concentration) after a 5 min preincubation, and the assay was run in duplicate (n = 2). Samples were analyzed by ultra-performance liquid chromatography tandem mass spectrometry (UPLC-MS/MS).

[3] = In vitro metabolite identification; format: in vitro ADME; details: rat hepatocytes, 10 μM
ABL1-phosphorylated = target: T6, ABL1-phosphorylated (Homo sapiens, UniProt P00519); test: KINOMEScan; format: binding; details: read-out: Percent Control
T6 construct: purchased Eurofins DiscoverX
Source text: as §1

ACVR1 = target: T7, ACVR1 (Homo sapiens, UniProt Q04771); test: KINOMEScan; format: binding; details: ACVR1, 1 µM; read-out: Percent Control
T7 construct: purchased Eurofins DiscoverX
Source text: as §1

Pharmacokinetic study = format: in vivo, BALB/c nude mice
Experimental: Animal experiments were performed at Pharmaron, Inc. and animal use was approved by Pharmaron’s Institutional Animal Care and Use Committee (IACUC) in Pharmaron (Pharmaron IACUC, Protocol #PK-M-07182022, #PK-R-06012022, and #ON-CELL-XEN-06012022) following the guidance of AAALAC. Six- to eight-week-old male Sprague-Dawley rats (approximately 200–300 g) obtained from Si Bei Fu Laboratory Animal Technology Co., six- to eight-week-old male CD1 mice (approximately 20–30 g) obtained from Si Bei Fu Laboratory Animal Technology Co., and six- to eight-week-old female BALB/c nude mice (approximately 20–30 g) obtained from Si Bei Fu Laboratory Animal Technology Co., were used in the pharmacokinetic studies. Six- to eight-week-old female BALB/c nude mice (approximately 18–22 g) obtained from Beijing Anikeeper Biotech Co., Ltd. were used in the intracranial PDX study. Animals were housed at 20–25 °C with humidity ranging from 40 to 70% relative humidity, were exposed to 12 h light and dark cycles, and were supplied with food and water ab libitum.
Approximately 0.03 mL of blood was collected from the dorsal metatarsal vein (in the case of CD1 mice), 0.03 mL of blood from the orbit vein (in the case of BALB/c nude mice), or 0.2 mL of blood from the jugular vein (in the case of Sprague-Dawley rats) at each time point. Blood at each sampling point was transferred into a plastic micro centrifuge tube containing K2-EDTA, and collection tubes with blood samples and anticoagulant were inverted several times for proper mixing of the tube contents and placed on ice prior to centrifugation for plasma. Blood samples were centrifuged at 4 °C, 4000g for 5 min to obtain plasma. Samples were stored in a freezer at −75 °C prior to analysis. Concentrations of test articles in the plasma samples were determined using LC-MS/MS and WinNonlin 8.3 (Phoenix) was used for pharmacokinetic calculations. The values obtained were plotted on GraphPad Prism software and are presented as mean ± SD.

[4] = target: T8, ABL1(M351T)-phosphorylated (Homo sapiens, UniProt P00519, M351T); test: KINOMEScan; format: binding; details: read-out: Percent Control
T8 construct: purchased Eurofins DiscoverX
Source text: as §1

AURKA = target: T9, AURKA (Homo sapiens, UniProt O14965); test: KINOMEScan; format: binding; details: read-out: Percent Control
T9 construct: purchased Eurofins DiscoverX (KINOMEscan)

[5] = target: T10, ABL1(Q252H)-nonphosphorylated (Homo sapiens, UniProt P00519, Q252H); test: KINOMEScan; format: binding; details: read-out: Percent Control
T10 construct: purchased Eurofins DiscoverX
Source text: as §1

ALK(C1156Y) = target: T11, ALK(C1156Y) (Homo sapiens, UniProt Q9UM73, C1156Y); test: KINOMEScan; format: binding; details: read-out: Percent Control
T11 construct: purchased Eurofins DiscoverX (KINOMEscan)
Source text: as §1

ALK(L1196M) = target: T12, ALK(L1196M) (Homo sapiens, UniProt Q9UM73, L1196M); test: KINOMEScan; format: binding; details: read-out: Percent Control
T12 construct: purchased Eurofins DiscoverX (KINOMEscan)
Source text: as §1

[6] = target: T13, ABL1(Y253F)-phosphorylated (Homo sapiens, UniProt P00519, Y253F); test: KINOMEScan; format: binding; details: read-out: Percent Control
T13 construct: purchased Eurofins DiscoverX
Source text: as §1

[7] = female, BALB/c nude, plasma, Mouse 3 mg/kg (IV)
[8] = female, BALB/c nude, plasma, Mouse 30 mg/kg (PO)

Sequence of CYP2D6 (P10635 whole entry): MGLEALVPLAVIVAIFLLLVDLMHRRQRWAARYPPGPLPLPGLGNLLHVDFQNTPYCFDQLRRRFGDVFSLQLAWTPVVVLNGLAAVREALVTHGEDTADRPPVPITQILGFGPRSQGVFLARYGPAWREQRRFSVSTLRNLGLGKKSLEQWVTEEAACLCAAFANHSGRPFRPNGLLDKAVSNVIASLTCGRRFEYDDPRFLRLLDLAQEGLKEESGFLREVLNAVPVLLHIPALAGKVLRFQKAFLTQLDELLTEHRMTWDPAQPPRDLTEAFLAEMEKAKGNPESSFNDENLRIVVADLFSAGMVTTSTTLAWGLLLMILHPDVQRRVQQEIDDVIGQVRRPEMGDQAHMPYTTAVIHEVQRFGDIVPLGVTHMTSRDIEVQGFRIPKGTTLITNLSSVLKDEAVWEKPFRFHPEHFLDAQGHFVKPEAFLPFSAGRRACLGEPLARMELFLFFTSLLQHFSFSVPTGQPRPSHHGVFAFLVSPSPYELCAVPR
T7 sequence (Q04771 21-509): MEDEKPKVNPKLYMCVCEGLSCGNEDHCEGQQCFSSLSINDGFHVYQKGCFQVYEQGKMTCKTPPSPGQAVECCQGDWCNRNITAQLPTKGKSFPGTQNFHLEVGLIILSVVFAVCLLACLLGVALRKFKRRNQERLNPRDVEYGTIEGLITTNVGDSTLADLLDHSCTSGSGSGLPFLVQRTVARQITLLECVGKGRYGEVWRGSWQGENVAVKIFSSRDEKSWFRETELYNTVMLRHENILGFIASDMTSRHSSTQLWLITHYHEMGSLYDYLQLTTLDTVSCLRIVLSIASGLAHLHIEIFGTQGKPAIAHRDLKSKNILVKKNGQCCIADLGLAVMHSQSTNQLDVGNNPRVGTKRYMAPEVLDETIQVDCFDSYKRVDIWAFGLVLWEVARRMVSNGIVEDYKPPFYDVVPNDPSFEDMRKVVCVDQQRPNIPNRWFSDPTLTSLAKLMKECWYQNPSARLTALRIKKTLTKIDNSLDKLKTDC
T9 sequence (O14965 whole entry): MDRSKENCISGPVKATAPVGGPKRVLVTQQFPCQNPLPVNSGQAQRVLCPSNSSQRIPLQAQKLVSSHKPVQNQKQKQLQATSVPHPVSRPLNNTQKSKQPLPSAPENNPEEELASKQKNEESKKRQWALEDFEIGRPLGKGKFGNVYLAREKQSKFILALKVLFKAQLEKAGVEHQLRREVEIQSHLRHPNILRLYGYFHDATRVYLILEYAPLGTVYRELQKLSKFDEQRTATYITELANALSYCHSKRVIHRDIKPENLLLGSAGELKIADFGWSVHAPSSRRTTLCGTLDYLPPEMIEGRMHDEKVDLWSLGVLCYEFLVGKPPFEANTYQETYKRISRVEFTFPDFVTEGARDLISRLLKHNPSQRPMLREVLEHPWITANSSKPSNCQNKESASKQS
T12 sequence (Q9UM73 19-1620 L1196M): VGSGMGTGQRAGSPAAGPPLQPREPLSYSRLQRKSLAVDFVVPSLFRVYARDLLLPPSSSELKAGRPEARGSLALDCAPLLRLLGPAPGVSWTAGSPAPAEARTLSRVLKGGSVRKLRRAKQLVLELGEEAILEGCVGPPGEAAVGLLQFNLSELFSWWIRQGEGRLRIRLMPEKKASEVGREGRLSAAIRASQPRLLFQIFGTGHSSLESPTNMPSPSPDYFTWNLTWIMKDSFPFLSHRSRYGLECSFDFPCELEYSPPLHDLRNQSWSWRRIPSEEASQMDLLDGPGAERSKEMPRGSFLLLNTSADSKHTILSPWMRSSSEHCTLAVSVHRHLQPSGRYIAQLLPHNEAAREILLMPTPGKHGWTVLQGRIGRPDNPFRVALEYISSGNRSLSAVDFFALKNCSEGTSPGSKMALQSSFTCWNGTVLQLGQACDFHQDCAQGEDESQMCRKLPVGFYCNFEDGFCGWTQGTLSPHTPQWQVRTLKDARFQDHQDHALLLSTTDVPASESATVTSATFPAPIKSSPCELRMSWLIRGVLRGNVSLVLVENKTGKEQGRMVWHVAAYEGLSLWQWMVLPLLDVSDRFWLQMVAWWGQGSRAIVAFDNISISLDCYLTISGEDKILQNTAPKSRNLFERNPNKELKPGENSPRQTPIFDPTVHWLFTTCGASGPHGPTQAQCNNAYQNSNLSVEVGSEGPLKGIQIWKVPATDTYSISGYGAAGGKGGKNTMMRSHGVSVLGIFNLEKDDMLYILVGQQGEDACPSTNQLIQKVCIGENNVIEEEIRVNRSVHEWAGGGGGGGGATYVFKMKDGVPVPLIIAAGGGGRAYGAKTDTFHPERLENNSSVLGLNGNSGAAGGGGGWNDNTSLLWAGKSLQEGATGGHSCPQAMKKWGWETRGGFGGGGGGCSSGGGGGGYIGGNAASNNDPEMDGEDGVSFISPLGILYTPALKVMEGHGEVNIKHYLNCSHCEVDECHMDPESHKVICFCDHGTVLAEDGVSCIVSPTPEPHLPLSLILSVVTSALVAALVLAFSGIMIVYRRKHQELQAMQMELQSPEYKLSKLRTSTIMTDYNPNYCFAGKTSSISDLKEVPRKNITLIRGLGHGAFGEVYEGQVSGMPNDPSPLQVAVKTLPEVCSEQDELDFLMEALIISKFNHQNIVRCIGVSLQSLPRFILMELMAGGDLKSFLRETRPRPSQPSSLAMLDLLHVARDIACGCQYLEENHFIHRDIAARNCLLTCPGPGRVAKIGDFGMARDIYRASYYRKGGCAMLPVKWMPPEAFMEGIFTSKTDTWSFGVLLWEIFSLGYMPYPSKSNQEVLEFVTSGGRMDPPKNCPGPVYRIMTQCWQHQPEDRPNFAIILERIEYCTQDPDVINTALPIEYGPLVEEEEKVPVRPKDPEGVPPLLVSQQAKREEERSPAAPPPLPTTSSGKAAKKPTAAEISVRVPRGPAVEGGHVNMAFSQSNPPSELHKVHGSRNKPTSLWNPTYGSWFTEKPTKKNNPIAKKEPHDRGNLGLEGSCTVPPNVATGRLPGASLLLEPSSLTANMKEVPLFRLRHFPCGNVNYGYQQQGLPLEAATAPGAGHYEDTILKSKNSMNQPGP
T1 sequence (Q13882 whole entry): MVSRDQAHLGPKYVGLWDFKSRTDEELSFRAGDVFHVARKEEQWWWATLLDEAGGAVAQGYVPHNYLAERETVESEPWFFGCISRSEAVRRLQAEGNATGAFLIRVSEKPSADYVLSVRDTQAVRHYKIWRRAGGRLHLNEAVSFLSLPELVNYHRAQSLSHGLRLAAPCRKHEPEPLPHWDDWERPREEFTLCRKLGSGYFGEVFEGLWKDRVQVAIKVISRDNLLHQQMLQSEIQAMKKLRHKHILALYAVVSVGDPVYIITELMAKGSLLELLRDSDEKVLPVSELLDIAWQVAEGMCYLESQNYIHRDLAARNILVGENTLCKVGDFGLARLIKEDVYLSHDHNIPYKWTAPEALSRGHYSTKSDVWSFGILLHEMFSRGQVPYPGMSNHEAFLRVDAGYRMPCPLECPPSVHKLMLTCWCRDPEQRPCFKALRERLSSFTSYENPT
T11 sequence (Q9UM73 19-1620 C1156Y): as the sequence (Q9UM73 19-1620 L1196M) above, with C1138Y, M1178L counted along it
T2 sequence (P51451 whole entry): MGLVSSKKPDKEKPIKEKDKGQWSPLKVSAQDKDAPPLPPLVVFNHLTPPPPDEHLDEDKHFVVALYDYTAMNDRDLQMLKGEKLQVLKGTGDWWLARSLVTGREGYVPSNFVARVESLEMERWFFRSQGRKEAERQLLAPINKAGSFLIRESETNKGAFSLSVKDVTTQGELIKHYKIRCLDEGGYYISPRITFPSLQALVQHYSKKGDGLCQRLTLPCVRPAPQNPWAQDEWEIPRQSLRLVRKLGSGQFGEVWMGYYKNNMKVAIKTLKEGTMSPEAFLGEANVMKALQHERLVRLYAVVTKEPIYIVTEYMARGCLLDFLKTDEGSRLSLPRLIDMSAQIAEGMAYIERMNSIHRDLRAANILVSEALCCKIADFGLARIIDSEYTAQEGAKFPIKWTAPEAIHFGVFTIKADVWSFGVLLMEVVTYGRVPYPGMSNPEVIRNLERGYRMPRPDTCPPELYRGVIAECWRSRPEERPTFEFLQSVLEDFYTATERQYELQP

COc1cc2ncnc(Nc3cccc(Cl)c3F)c2cc1OCCON1CCN(C)CC1 [Compound 9, N-(3-Chloro-2-fluorophenyl)-7-methoxy-6-(2-((4-methylpiperazin-1-yl)oxy)ethoxy)quinazolin-4-amine]
remaining binding at 1 µM (BRK): 94% | remaining binding at 1 µM (BLK): 16% | remaining binding at 1 µM [1]: 30% | remaining binding at 1 µM [2]: 8.8% | remaining binding at 1 µM (ERBB2 (HER2)): 0.45% | IC50 (CYP2D6): 1100 nM and 1110 nM | share of parent/metabolite after incubation of 9 [3]: 1.11% | remaining binding at 1 µM (ABL1-phosphorylated): 7.7% | remaining binding at 1 µM (ACVR1): 100% | plasma level at the 24 h time point (Pharmacokinetic study; 30 mg/kg PO, BALB/c nude mice): no compound was detected | clearance (Pharmacokinetic study; [7]): 58.6 ± 8.7 mL/min/kg | half-life at 24 h (Pharmacokinetic study; [7]): 1.67 ± 0.12 h | Vd at 24 h (Pharmacokinetic study; female, BALB/c nude, plasma, Mouse 3 mg/kg (IV), read-out: Vss): 4.68 ± 0.54 L/kg | Cmax at 24 h (Pharmacokinetic study; [8]): 2180 ± 66 nM | Tmax at 24 h (Pharmacokinetic study; [8]): 0.42 ± 0.14 h | bioavailability at 24 h (Pharmacokinetic study; [8]): 61% | half-life at 24 h (Pharmacokinetic study; [8]): 1.84 ± 0.62 h | remaining binding at 1 µM [4]: 12% | remaining binding at 1 µM (AURKA): 75% | remaining binding at 1 µM [5]: 6.7% | remaining binding at 1 µM (ALK(C1156Y)): 100% | remaining binding at 1 µM (ALK(L1196M)): 100% | remaining binding at 1 µM [6]: 6.6%
